Laboratory results published in patent EP0535804A1, “Peptide compounds” (HITACHI CHEMICAL CO., LTD., priority 1991, dated 1993).
Ends that are not written are not given here.

Tests used:
human endothelin 1 [1] = assay: Enzymeimmuno competitive inhibition assay of endothelin 1 binding to peptide resin; conditions: 3 hours at room temperature
Description: After blocking those sites susceptible to nonspecific adsorption on the peptide resin obtained in (2) above with 0.2% skim milk solution, the peptide resin was immersed in 200 µl of human endothelin 1 solution (0.2 µg/ml) (prepared by dissolving in Dalbecco's phosphate buffered biological saline containing 0.1% skim milk and 0.1 % Tween 20). After allowing to react for 3 hours at room temperature while stirring gently, the resulting solution was used as sample solution (i).
Separate from the above, the wells of an ELISA microplate were coated overnight at 4°C with 200 µl of human endothelin 1 solution (1 wg/ml). […]
After washing the human endothelin 1 coated plate (ii) with washing buffer (Dalbecco's phosphate buffered biological saline containing 0.1% Tween), 50 µl of sample solution (i) was added followed immediately by the addition of 200 µl of anti-human endothelin 1 rabbit antibody solution (using Dalbecco's phosphate buffered biological saline containing 0.1% skim milk and 0.1% Tween as the dilution buffer). […] After similarly washing the plate and adding 200 µl of substrate solution (1 mg p-nitrophenyl phosphate/ml 1M diethanolamine buffer), the amount of p-nitrophenol released by the labelled enzyme present on the plate was determined by measuring the absorbance at 405 nm. […]

human endothelin 1 [2] = assay: Binding activity of radioactive ligand (125I-human endothelin 1) to peptide resin; conditions: 125I-human endothelin 1 solution 0.131 ng/ml, 2 hours at room temperature, gamma counter
Description: After blocking the sites susceptible to adsorption on the peptide resin obtained in (2) above with 0.2% skim milk solution, the peptide was suspended in 100 ml of ^1251-human endothelin 1 (specific activity: 74 TBq- /mmol) solution (0.131 ng/ml) (prepared by dissolving in Dalbecco's phosphate buffered biological saline containing 0.1 % skim milk and 0.1 % Tween) and allowed to react for 2 hours at room temperature. Following the binding reaction, the peptide resin was thoroughly washed with washing buffer (Dalbecco's phosphate buffered biological saline containing 0.1 % Tween), and the radioactivity bound to the peptide resin was measured with a gamma counter.

KRGFPP
inhibitory activity (human endothelin 1 [1]; decrease of endothelin 1 antigen activity after binding to peptide resin pins, 0.2 µg/ml): 21.1%
antigen activity of human endothelin 1 in said sample solution (i) (human endothelin 1 [1]; remaining relative to before the binding reaction to the peptide resin pins, endothelin 1 solution 0.2 µg/ml, 200 µl): 78.9%
amount of human endothelin 1 bound to the peptide resin (human endothelin 1 [2]): 5.18 pg
